Entries after “also recorded” stand apart in the source; their conditions may differ.
Assays:
Stromelysin = Stromelysin (Homo sapiens, UniProt P08254); assay: inhibition of stromelysin (Table 2); type: biochemical; settings: read-out: Strom inhibitory activity
Procedure: Specifically, assay of inhibition activity can be conducted as follows. […] Assays for inhibition of human stromelysin are conducted as described by Teahan, J., et al., Biochemistry (1989) 20:8497-8501.
Assay of inhibition activity can be conducted using a fluorogenic substrate developed by Knight et al., FEBS Letters (1992) 296:263. This method uses a fluorometer to determine the rate of substrate hydrolysis in a 96 well plate format. Reaction rates are determined at several substrate concentrations, and multiple inhibitor levels. The data are analyzed by Lineweaver-Burk, Dixon and Henderson plot analyses (Enzyme Kinetics (1975) Irwin Segal (John Wiley & Sons, Inc., publishers), and as described by Henderson, Biochem J. (1972) 127:321). The substrate levels range from 10-30μM. […] Inhibitors may be assayed against purified 72 kD gelatinase, 92 kD gelatinase, neutrophil collagenase, stromelysin or other proteases as appropriate. The enzymes are activated at 37° C. with APMA (4-aminophenylmercuric acetate), and the assays are carried out at room temperature.

[1] = system: PdiBu-Induced Epidermal Hyperplasia; assay: PdiBu-induced epidermal hyperplasia mouse model (psoriasis); type: in vivo, hairless mice
Procedure: The phorbol ester, PdiBu (20 nmol in 20 μl if acetone) was applied to both ears of hairless mice (h/h) (approximately 1 cm^2 each). The test compounds (in total volume of 20 μl) were then applied to the right ear immediately (15 to 30 min) following PdiBu. The left ear of each animal received an equivalent amount (20 μl) of vehicle. Test compounds (and vehicle) were reapplied at 6 and 18 hours following PdiBu. Treatment times were staggered to allow exact time intervals to be obtained. At 30 hours after PdiBu, animals were anesthetized, and ear thickness values were obtained using a microcaliper. The weights of punch biopsies (6mm) were then obtained. Histology was performed on selected samples taken at 30 hours.
Left ear in each animal served as vehicle-treated controls (PdiBu+ETOH). Thus, the controls for this series include: 1) Untreated controls; 2) PdiBu plus vehicle alone (included for each mouse tested); 3) PdiBu plus AHA; 4) PdiBu plus Lidex® as a positive control.

[2] = system: protease activity of chronic wound fluid; assay: Azocoll assay of protease activity in chronic wound fluid; type: biochemical, human
Procedure: Fluids were collected from 3 types of human wounds termed closed spontaneously healing wounds, open slowly healing wounds, and open chronic wounds. In the first category were fluids collected from the chest wall of women following mastectomy surgery. Fluids from non-infected wounds that were left open for valid surgical reasons were considered open slowly healing wounds. An occlusive dressing was placed over the wound bed, and fluids were collected after 2-6 hours of occlusion. Finally, fluids were also collected from chronic open wounds by covering the wounds with occlusive dressings. Wounds were considered to be chronic if they were not clinically infected and had been open and not healing for more than 4 weeks.
The various wound fluids were assayed for matrix metalloproteinase activity using the Azocoll assay essentially as described by Chavira, et al., Analytic Biochemistry (1984), 136:446.
The fluids were centrifuged, and the supernatants filtered using a 0.45μ sterile Gelman filter. The filtrates were stored frozen at -80° C. until tested for protease activity.
The effects of four inhibitors on the protease activity present in wound fluids were determined. The inhibitors were: compounds
Stock solutions of the four inhibitors were all prepared at a concentration of 800 μg/ml. Due to different solubility properties of the inhibitors, different techniques were utilized. […] S1209 was dissolved in 1% DMSO then dissolved in 10 mM citrate, pH 5.5, containing 0.05% methyl cellulose. 39A was dissolved in propylene glycol (to give a final concentration of 2.4%) then dissolved in 1 mM CaCl2, 50 mM Tris-Cl, pH 7.8. 21A was dissolved in propylene glycol (2.4%) methyl cellulose (0.05%) and 10 mM citrate, pH 8.
The protease substrate, Azocoll, was obtained from Sigma Chemical Corporation and it is a substrate for collagenase/gelatinase-like metalloproteinase enzymes and general proteases. Clostridium histolyticum collagenase (the crude form of the enzyme) was from Worthington Biochemicals. General chemicals including TRIS buffer, DMSO, and CaCl2 were from Sigma Chemical Corporation.
Briefly, 900 μl of the Azocoll substrate suspension in buffer ([…] in 50 mM TRIS, pH 7.8, 1 mM CaCl2) was added to 1.5 ml microcentrifuge tubes then 50 μl of inhibitor (or buffer) and 50 μl of chronic wound fluid (or collagenase standard) were added to the reaction tube. The reaction tubes were placed at 37° C. in a shaker that inverted the tubes 30 times per minute. After 24 hours of incubation, the reaction tubes were centrifuges at 10,000 X g and the absorbance of the supernatant solution was measured at 520 nm with a Milton-Roy spectrophotometer. Proteolysis of Azocoll substrate generates soluble colored fragments from the insoluble Azocoll substrate. Wound fluid samples were incubated alone or with the inhibitors. Controls included incubation of the Azocoll substrate with the assay buffer to measure spontaneous degradation of the substrate. A standard curve for digestion of the Azocoll substrate was generated by incubation of the Azocoll with crude bacterial collagenase. Protease levels were expressed as net μg of collagenase equivalent per ml of chronic wound fluid. In the figures, certain of the wound fluids are referred to by an individual name.
For these experiments, due to the different solubility properties of the inhibitors, different techniques were utilized. […] S1209 was dissolved in 1% DMSO then dissolved in 10 mM citrate, pH 5.5, containing 0.05% methyl cellulose. 39A was dissolved in propylene glycol (to give a final concentration of 2.4%) then dissolved in 1 mM CaCl2, […] Tris-Cl, pH 7.8. 21A was dissolved in propylene glycol (2.4%) methyl cellulose (0.05%) and 10 mM citrate, pH 8.

[3] = system: infiltration of neutrophils in the peritoneal cavity; assay: thioglycollate induced peritonitis assay; type: in vivo, Balb/c male mice; settings: 800 μg/ml, 1 ml/animal i.p. at 0.5, 1.0, 2.0 hr; p=0.0141
Procedure: 6-8 week old Balb/c male mice were used (n=10 each for the treated and control groups). Thioglycollate suspension (5.9 g/l in deionized water) was boiled until the color was golden, then cooled yielding a pink color. The lavage solution consisted of saline supplemented with 0.1% bovine serum albumin (100 mg/100 ml) and 5U heparin/ml.
Cells were collected by lavage at T=3.0 hr. post thioglycollate administration. The animals were euthanized by CO2 asphyxiation, and the abdominal skin was cut with surgical scissors to reveal the peritoneal cavity. Five ml of lavage fluid was injected into the peritoneum, and a suspension was made by gentle massage. The fluid was removed by syringe, recovering about 80% of the injected fluid. Total cell counts in the lavage fluid were determined by Coulter Counter.

hypovolemic shock = assay: hypovolemic shock, trauma-hemorrhage and resuscitation, non-heparinized rat; type: in vivo, Sprague-Dawley rats
Procedure: This experiment relates to metalloprotease inhibitors in treating hypovolemic shock when administered systemically (via i.v. injection, infusion or other appropriate route) during resuscitation following hemorrhage-induced shock in a non-heparinized animal.
Following hemorrhage, Ringer's lactate (3X maximum bleedout volume) was given over 45 minutes followed by Ringer's lactate (2X maximum bleedout volume) over 60 minutes. […] Sham-operated animals underwent blood vessel cannulation and midline incision, but hemorrhage and resuscitation was not induced. […] Saline-treated underwent trauma-hemorrhage and fluid resuscitation plus vehicle (an equal volume of normal saline) treatment.

Stromelysin, sequence (P08254 100-477): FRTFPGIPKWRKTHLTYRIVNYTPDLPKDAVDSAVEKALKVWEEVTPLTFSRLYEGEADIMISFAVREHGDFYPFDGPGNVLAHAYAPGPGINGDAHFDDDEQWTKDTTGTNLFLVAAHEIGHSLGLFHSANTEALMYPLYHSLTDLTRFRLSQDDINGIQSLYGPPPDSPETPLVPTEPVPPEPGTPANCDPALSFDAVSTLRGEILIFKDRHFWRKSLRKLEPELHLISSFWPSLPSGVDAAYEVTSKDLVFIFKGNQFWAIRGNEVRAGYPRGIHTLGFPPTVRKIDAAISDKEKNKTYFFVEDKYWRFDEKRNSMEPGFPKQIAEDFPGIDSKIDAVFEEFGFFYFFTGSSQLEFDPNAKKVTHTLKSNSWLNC

SMILES: CNC(=O)[C@H](Cc1c[nH]c2ccccc12)NC(=O)[C@@H](CC(=O)NO)CC(C)C [Compound 5A, N-[D,L-2-isobutyl-3-(N'-hydroxycarbonylamido)-propanoyl]-tryptophan methylamide]
- Ki (Stromelysin): 27 nM
- skin biopsy weight ([1]; PdiBu + 5A, 0.51 μmol/ear at 0.25 and 24 hours, 6 mm punch): 13.4 ± 1.5 mg
- skin biopsy weight, % of Control ([1]; PdiBu + 5A, 0.51 μmol/ear at 0.25 and 24 hours, of untreated control): 146%
- ear thickness ([1]; PdiBu + 5A, topical 0.51 μmol/ear): 18.6 ± 1.6 inch × 10^-3
- ear thickness, % of Control ([1]; PdiBu + 5A, topical 0.51 μmol/ear, of untreated control): 140%
- PdiBu-induced epidermal hyperplasia ([1]; histology): inhibited; also recorded: completely prevents; also recorded: decreased inflammation and epidermal hyperplasia
- PdiBu-induced extravasation of RBC's ([1]; histology): inhibited
- PdiBu-induced migration of inflammatory cells into dermis and epidermis ([1]; histology): inhibited
- epidermal morphology ([1]; histology): more normal appearing epidermal morphology
- anti-inflammatory activity ([1]; in vivo model for psoriasis): potent anti-inflammatory activity; also recorded: nearly comparable to that observed with Lidex®
- effect on PdiBu-induced ear thickness ([1]; topical): significantly inhibited
- effect on PdiBu-induced increase in punch biopsy weight ([1]; topical): significantly inhibited
- effective concentrations (order of magnitude) ([2]; FIG. 4): μM
- inhibition of protease activity of a chronic wound fluid ([2]; FIG. 4): effectively inhibited; also recorded: much more potent that EDTA
- inhibition of proteolytic degradation of Azocoll ([2]; FIG. 4, 0.4 μg/ml (0.1 μM)): approximately 92%
- inhibition of proteolytic degradation of Azocoll ([2]; FIG. 4, 4 μg/ml (1 μM)): approximately 92%
- inhibition of proteolytic degradation of Azocoll ([2]; FIG. 4, 4 μg/ml (10 μM)): approximately 96%
- inhibition of proteolytic degradation of Azocoll ([2]; FIG. 4, 40 μg/ml (100 μM)): approximately 96%
- protease activity of chronic wound fluid after addition of inhibitor ([2]; FIG. 7, 800 μg/ml, untreated 284±52): 45±1 μg collagenase equivalents/ml of wound fluid
- inhibition of protease activity of chronic wound fluid ([2]; FIG. 7, highest concentration (800 μg/ml)): 84%
- protease activity of chronic wound fluid after addition of inhibitor, lower concentrations ([2]; FIG. 7, lower concentrations, untreated 284±52): up to 90±6 μg collagenase equivalents/ml of wound fluid
- average number of cells in the peritoneum versus vehicle [3]: significantly reduced
- hepatocellular function (Vmax and Km) (hypovolemic shock; 2 and 4 hours): improved hepatic function relative to saline group; also recorded: restores or significantly improves
- Vmax of indocyanine green clearance versus saline group (hypovolemic shock; 2 h): significantly higher
- maximal clearance rate (Vmax) of indocyanine green (hypovolemic shock; 2 h after resuscitation, of sham level): about 85%
- microvascular blood flow versus saline group (hypovolemic shock; 2 h and 4 h, liver, kidney, spleen, small intestine): elevated relative to the saline group; also recorded: restores or significantly improves
- microvascular blood flow (hypovolemic shock; 2 h and 4 h, of sham, liver, kidney, spleen, small intestine): 80-100%
- Vmax of indocyanine green clearance versus saline treated animals (hypovolemic shock; 4 h): two-fold that of saline treated animals
- total peripheral resistance (hypovolemic shock; following resuscitation, versus saline or sham): lower following resuscitation in 5A group versus saline or sham treatment; also recorded: decreases total peripheral resistance
- cardiac output (hypovolemic shock; of sham group): about 80%
- stroke volume (hypovolemic shock; of sham group): about 85%
- mean arterial pressure (hypovolemic shock; of the sham group): 60-70%
- cardiac output versus saline group (hypovolemic shock; rat, in vivo): significantly elevated; also recorded: restores or significantly improves
- mean arterial pressure versus saline (hypovolemic shock; rat, in vivo): not significantly different; also recorded: no significant effects
- stroke volume versus saline group (hypovolemic shock; rat, in vivo): elevated relative to saline group
- systemic hematocrit versus saline treated group (hypovolemic shock; rat, in vivo): no significant effects
- heart rate (hypovolemic shock; versus other groups): about the same; also recorded: no significant effects
